Like-named read-outs stand apart in the source and are kept apart here.

Data set [1] relates to LTD4-induced bronchoconstriction in guinea pigs. Briefly: LTD4-induced bronchoconstriction in guinea pigs (Konzett-Rossler method). It is filed as in vivo, guinea pig. To be noted: oral, 1 mg/kg. As for the experimental part: Guinea pigs were anesthetized by injection of pentobarbital sodium (75 mg/kg, i.p.), and a polyethylene cannula was inserted into the trachea which had been incised. For the purpose of administration of LTD4, a catheter was inserted into the jugular vein of the animal. One side of the cannula inserted into the trachea was connected with a volume-controlled respirator to perform artificial respiration at a ventilation volume of 5 mL and at a ventilation rate of 70 times/min. LTD4 was administrated intravenously to induce the bronchoconstriction, and the airway resistance was measured using the Konzett-Rossler method. The bronchoconstriction response was measured for 10 minutes after LTD4-challenge, and the ratio of bronchoconstriction response was determined and represented as a percentage of the maximal increase in insufflation pressure achieved by clamping off the trachea. In this connection, the crystalline forms of the present invention were orally administered 1, 2, 4, 8, 12, 18, 24, 36 and 48 hours prior to challenge by LTD4.

Data set [2] is described as follows: Photostability test (D65 lamp). In kind it is physicochemical. To be noted: not less than 1.2 million lux hours and 200 W·h/m^2, 25° C.±2° C., visual check. As for the experimental part:
Each crystalline form of compound I, compound II, and compound III were weighed about 5 mg, and were exposed to light from D65 lamp providing an overall illumination of not less than 1.2 million lux hours and an integrated near ultraviolet energy of not less than 200 W·h/m^2 under 25° C.±2° C.

The nature of data set [3]: Thermodynamical stability test by differential scanning calorimetry (DSC). In kind it is physicochemical. As for the experimental part:
The thermodynamical stability of each crystalline form of compound I, compound II, and compound III was analyzed by differential scanning calorimetry (DSC). As a result, it was apparent that the crystalline forms of the present invention are ones which have improved thermodynamical stability.

Setting [4] is: administered 2 hours prior to LTD4 challenge.
Where [5] appears, read: administered 24 hours prior to LTD4 challenge.

In the case of `Cc1c(CCCC(=O)O)c2cccc(/C=C/c3ccc(OCCCCc4c(F)c(F)c(F)c(F)c4F)cc3)c2n1CCCC(=O)O` [Comparative Example 5, 4,4′-{2-methyl-7-[(E)-2-{4-[4-(pentafluorophenyl)butoxy]phenyl}vinyl]-1H-indole-1,3-diyl}dibutanoic acid], the bronchoconstriction inhibition ratio in data set [1] (setting [4]) is 98.6%; in data set [1] (setting [5]) it was 74.1%.

On to `Cc1c(F)cccc1CCCCOc1ccc(/C=C/c2ccc(F)c3c(CCCC(=O)O)c(C)n(CCCC(=O)O)c23)cc1` [Comparative Example 4, 4,4′-{4-fluoro-7-[(E)-2-{4-[4-(3-fluoro-2-methylphenyl)butoxy]phenyl}vinyl]-2-methyl-1H-indole-1,3-diyl}dibutanoic acid], for which the figures for the bronchoconstriction inhibition ratio in data set [1] (setting [4]) and in data set [1] (setting [5]) were 97.5% and 43.2%, respectively.

Take `Cc1c(CCCC(=O)O)c2cccc(C#Cc3ccc(OCCCCc4c(F)c(F)c(F)c(F)c4F)cc3)c2n1CCCC(=O)O` [Example 14, 4,4′-[2-methyl-7-({4-[4-(pentafluorophenyl)butoxy]phenyl}ethynyl)-1H-indole-1,3-diyl]dibutanoic acid]: the “photostability of the crystalline form” value in data set [2] is recorded as “more photostable than type A crystal”. For the same molecule, in data set [3], the “thermodynamical stability of the crystalline form” value (“thermodynamical stability” for short) was “thermodynamically stable”. Also, the bronchoconstriction inhibition ratio in data set [1] (setting [4]) is given as 98.5%; in data set [1] (setting [5]), 99.2%.

As for `Cc1c(F)cccc1CCCCOc1ccc(C#Cc2ccc(F)c3c(CCCC(=O)O)c(C)n(CCCC(=O)O)c23)cc1` [type B crystal of compound I, 4,4′-[4-fluoro-7-({4-[4-(3-fluoro-2-methylphenyl)butoxy]phenyl}ethynyl)-2-methyl-1H-indole-1,3-diyl]dibutanoic acid], the fusion enthalpy in data set [3] is 57.2 J/g.

`Cc1c(F)cccc1CCCCOc1ccc(C#Cc2ccc(F)c3c(CCCC(=O)O)c(C)n(CCCC(=O)O)c23)cc1` [Example 12, 4,4′-[4-fluoro-7-({4-[4-(3-fluoro-2-methylphenyl)butoxy]phenyl}ethynyl)-2-methyl-1H-indole-1,3-diyl]dibutanoic acid]: the “photostability of the crystalline form” value in data set [2] was “photostable”. Moreover, in data set [3], the “thermodynamical stability” value is “the most thermodynamically stable crystalline form”. In addition, the fusion enthalpy in data set [3] (listed as type C crystal of compound I) is 105.6 J/g.

In the case of `Cc1c(CCCC(=O)O)c2cccc(C#Cc3ccc(OCCCCc4c(F)c(F)c(F)c(F)c4F)cc3)c2n1CCCC(=O)O` [type A crystal of compound II, 4,4′-[2-methyl-7-({4-[4-(pentafluorophenyl)butoxy]phenyl}ethynyl)-1H-indole-1,3-diyl]dibutanoic acid], the “degree of change in color to yellow after test as compared to before test” value in data set [2] (type A versus type B crystal) was “bigger”.

With `Cc1c(F)cccc1CCCCOc1ccc(C#Cc2ccc(F)c3c(CCCC(=O)O)c(C)n(CCCC(=O)O)c23)cc1` [type A crystal of compound I, 4,4′-[4-fluoro-7-({4-[4-(3-fluoro-2-methylphenyl)butoxy]phenyl}ethynyl)-2-methyl-1H-indole-1,3-diyl]dibutanoic acid], the fusion enthalpy in data set [3] came out at 96.3 J/g.

Turning to `Cc1c(CCCC(=O)O)c2c(F)ccc(/C=C/c3ccc(OCCCCc4c(F)cc(F)c(F)c4F)cc3)c2n1CCCC(=O)O` [Comparative Example 6, 4,4′-{4-fluoro-2-methyl-7-[(E)-2-{4-[4-(2,3,4,6-tetrafluorophenyl)butoxy]phenyl}vinyl]-1H-indole-1,3-diyl}dibutanoic acid], the bronchoconstriction inhibition ratio in data set [1] (setting [4]) is given as 53.2%; in data set [1] (setting [5]), 16.1%.

Consider `Cc1c(CCCC(=O)O)c2c(F)ccc(C#Cc3ccc(OCCCCc4c(F)cc(F)c(F)c4F)cc3)c2n1CCCC(=O)O` [Example 16, 4,4′-[4-fluoro-2-methyl-7-({4-[4-(2,3,4,6-tetrafluorophenyl)butoxy]phenyl}ethynyl)-1H-indole-1,3-diyl]dibutanoic acid], for which the “photostability of the crystalline form” value in data set [2] was “photostable”. In data set [3], the “thermodynamical stability” value is “thermodynamically stable”.

Source of the values: patent publication US8598223B2, “Crystalline forms of 4, 4′-[4-fluoro-7-({4-[4-(3-fluoro-2-methylphenyl) butoxy] phenyl} ethynyl)-2-methyl-1H-indole-1,3-diyl] dibutanoic acid, 4,4′-[2-methyl-7-({4-[4-(pentafluorophenyl) butoxy] phenyl} ethynyl)-1H-indole-1, 3-diyl] dibutanoic acid, and 4,4′-[4-fluoro-2-methyl-7-({4-[4-(2, 3, 4, …” (Ono Pharmaceutical Co., Ltd., priority 2010, dated 2013).
